Literature values in patent publication US6071508A, “Preparation of formulations for electrotransport drug delivery” (Alza Corporation, priority 1997, dated 2000).
Where a name gives a salt, the structure may show the parent alone.

Settings: known value

pKa, pyrimidinamine functionality: > 11.0
pKa, secondary amine group: 8.3
SMILES: c1ccc2c(c1)CC[C@H](CNCCCNC1=NCCCN1)O2 [drug salt of Example 1, (-)-(R)-N-[(3,4-dihydro-2H-1-benzopyran-2-yl)methyl]-N'-(1,4,5,6-tetrahydropyrimidinyl)-1,3-propanediamine dihydrochloride]
